Source: US20230003721A1, “MITOTHERAPEUTICS FOR THE TREATMENT OF BRAIN DISORDERS” (The University of Florida Research Foundation, Inc., priority 2019, published 2023)
Counter-ions that a name gives are not always drawn. Like-named read-outs stand apart in the source and are kept apart here.

Tests used:
[1] = system: Drosophila model for AD; assay: Drosophila model for AD: neuronal mitochondrial morphology; assay type: in vivo; settings: cell bodies of neurons; 100 micromolar, 15 days-of-age
Source text: To assay representative compounds in this example, we employed a Drosophila model for AD (X. Wang et al., Mol. Neurobiol. […] Flies expressing this toxic protein show: […] Drugs that show efficacy therefore: enlarge neuronal mitochondria (increased volume, increased surface area, increased length), reduce sphericity, and reduce the number of mitochondria compared to untreated Alzheimer's flies. The AD model flies were collected immediately after eclosion from the pupal case and transferred to food that was laced with drug at 100 micromolar concentration. The flies were aged to 15 days-of-age: this is when the mitochondrial pathology is very robust. We compared the morphology of mitochondria collected from these flies treated with drug and compared them to the mitochondria of flies that remained untreated.

[2] = system: primary forebrain neurons; assay: cells; settings: 24 h; for Dendritic Mt CA / Neurite Area: rescreen, 12.5 μM, vs DMSO wells; for EC50: Mus musculus, Neuron
[3] = system: primary neurons; settings: 75 μM peroxide, 12.5 μM compound, 48 h
[4] = system: primary neurons; assay: TMRM fluorescence assay of inner mitochondrial membrane potential (ΔΨm); settings: for Emax: read-out: TMRM (Effect-size); for TMRM Primary: primary screen, 12.5 μM; for TMRM Primary / TMRM Rescreen: 24 h
[5] = system: primary neurons; assay: CellTiter-Glo luminescence-based ATP assay; assay type: cell-based, mouse; settings: for ATP: ATP orthogonal screen, 24 h; for Emax: maximal percent increase relative to in-plate DMSO controls, read-out: ATP (Effect-size)
Method in brief: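 Primary neurons treated from DIV13 for 24 h with compound or DMSO. After part of the medium was removed, CellTiter-Glo reagent was added; plates were shaken 10 min at 200 rpm, kept 2 min in the dark at room temperature, and luminescence read as total ATP.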

[6] = system: isolated forebrain mitochondria; assay: ATP production of isolated mitochondria (luciferase-based kinetic assay); assay type: biochemical, mouse
Procedure: Isolation of mitochondria. For the ATP synthesis experiments of FIG. 6, forebrains from P0 pups were dissected as described above. 2×10^7 cells were harvested for high-purity mitochondrial isolation using the Qiagen QProteome kit. The mitochondrial pellet was resuspended in 500 μl mitochondria storage buffer (provided by kit) and kept on ice until further use.
ATP production of isolated forebrain mitochondria of P0 pups was measured by ATP Determination Kit (Molecular Probes). […] The reactions were initiated by the addition of 1 mM ADP (deprived of ATP contamination by adding 3 U/ml hexokinase to 10 mM of ADP in 50 mM Tris-HCl, 20 mM MgCl2 and 22 mM glucose, incubating the solution at 37° C. for 1 hr and heat inactivating the hexokinase at 100° C. for 3 min). Luminescence was recorded every 15-30 sec for 1 hr at 580±40 nm.

[7] = system: primary neurons; assay: Mitochondrial morphology and neurite area after functional modulators; assay type: cell-based, mouse; parameters: key to Neurite Area: non-significant (n.s.); settings: for Mitochondrial Morphology / Neurite Area: significant change
Procedure: Mitochondrial morphology and neurite area measurements. Mitochondrial morphology and neurite area were quantified using methods described by Varkuti et al, 2020. Briefly, Cre-dependent mitochondrial targeted GFP2 (mito-GFP) ROSA26 knock-in mice were crossed with Ai14 (007908, The Jackson Laboratory) expressing cytosolic-tdTomato, and the forebrain of P0 pups were isolated and primary neurons were cultured as described above. AAV9 virus containing the iCRE sequence driven by the neuron specific CaMKII promoter was added to the cell culture at plating and 75% of the media replaced 4 h after plating. […] Z-projected images of the green channel were preprocessed (background subtraction: rolling ball, radius=3; median filtering: radius=1) and somatic mitochondria were removed (see details in Varkuti et al, Science Advances 6 (2020) eaaw8702). Red channel images were also preprocessed (tubeness filter, soma removal). Preprocessed images were segmented by GE Developer software (object-based, kernel size: 3). […] The length and circularity measurements for mitochondria were aggregated using the median and the area for neurites using the sum. After removing empty fields and outlier values from the fields, aggregated field values were averaged to well values (4 fields/well, 12 wells/compound). Robust Z-scores were calculated using DMSO-treated wells for each well ((mediancompound−medianDMSO)/median absolute deviationDMSO), well values were averaged for each compound.
A high-content assay was developed in parallel to monitor aspects of mitochondrial dynamics in primary cultured neurons that conditionally express (Cre recombinase dependent) mitochondrial-tagged GFP and cytosolic tdTomato reporters (Varkuti et al., 2020). We monitored two aspects of neuritic mitochondrial dynamics: (1) the health of mitochondria as measured by the average circularity of axonal mitochondria, since defective mitochondria targeted for mitophagy become circular in shape, and (2) the balance between fission/fusion measured by the average length of dendritic mitochondria. […] FIG. 19A illustrates the results of surveying a collection of functional modulators selected from 5 different structural clusters (FIG. 17), quantified as robust z-scores relative to DMSO-treated control neurons.

[8] = system: primary neurons; assay: Oxygen consumption rate (OCR) of permeabilized primary neurons; assay type: cell-based, mouse
Procedure: The oxygen consumption rate (OCR) of permeabilized neurons and isolated brain mitochondria (from 9-month old mice) was measured by the XF96 Extracellular Flux analyzer (Seahorse Bioscience). […] Prior to the start of the OCR measurement, all but 30 μl of Neurobasal A/B27 culture medium was removed from each well. Cells were washed twice with pre-warmed MAS-BSA assay medium (4 mg/ml fatty-acid free BSA, pH=7.2) and incubated in 180 μl at 37° C. for 5 min. Following the cartridge calibration, cells were loaded into the XF96 Extracellular Flux analyzer and further equilibrated for 10 min with two cycles of 3 min mixing and 2 min resting prior to the first measurement of basal respiration. OCR were measured at 37° C. under basal conditions followed by the sequential injection of pre-warmed 10× mitochondrial substrates/ADP (20 μl), oligomycin (22 μl), FCCP (24 μl), and rotenone/antimycin A (26 μl). The final concentrations of injected compounds were as follows: 10 mM mitochondrial substrates (pyruvate/malate or succinate), 1 mM ADP, 1.5 μM oligomycin, 3 μM FCCP, 2 μM rotenone/antimycin A. Saponin (25 μg/ml) was co-injected with substrate/ADP to permeabilize the cells and stimulate ADP-dependent respiration. Two baseline measurements were obtained prior to any injection and 2 response measurements were collected after each injection except for after FCCP addition which consisted of 1 measurement (9 total measurements in each assay). Each measurement cycle consisted of 2 min mixing, 2 min waiting, and 3 min data acquisition. This protocol allowed for sequential assessment of basal cell respiration, maximal mitochondrial respiratory capacity (State 3 with substrate/ADP), proton leak (State 4o with oligomycin), uncoupled maximal respiration (State 3U with FCCP) and non-mitochondrial respiration with the Complex I/Complex III inhibitors, rotenone/antimycin A. Cells were washed twice with MAS buffer to remove residue BSA contained in the assay medium, lysed in 50 μl lysis buffer (25 mM HEPES, 1 mM EGTA, 1 mM EDTA, 0.1% SDS, 1% NP-40, 1× protease and phosphatase inhibitor, pH 7.0 adjusted with NaOH) and total protein was determined by BCA assay. Oxygen consumption was normalized to total protein content as pmol O2/min/ug total protein.
Oxygen consumption rate (OCR) or extracellular acidification rate (ECAR) measurements from permeabilized neurons and isolated brain mitochondria were performed using the XF96 Extracellular Flux analyzer (Seahorse Bioscience). For assays using cultured neurons, primary neurons were dissociated from the forebrains of P0 pups, seeded at 1.9×10^4/well (PDL-coated XF96 plate), cultured to DIV13 and incubated with selected compounds or DMSO (0.1%) for 24 h. Prior to the start of the OCR measurement, all but 30 μl of Neurobasal A/B27 culture medium was removed from each well. Cells were washed twice with pre-warmed MAS-BSA assay medium (70 mM sucrose, 220 mM mannitol, 10 mM KH2PO4, 5 mM MgCl2, 2 mM HEPES and 1 mM EGTA, 4 mg/ml fatty-acid free BSA, pH=7.2 adjusted using KOH) and incubated in 180 ul MAS-BSA medium at 37° C. in a CO2-free incubator for 5 m. […] OCR and ECAR were measured at 37° C. under basal conditions followed by the sequential injection of pre-warmed 10× mitochondrial substrates/ADP (20 μl), oligomycin (22 μl), FCCP (24 μl), and rotenone/antimycin A (26 μl).

[9] = Mus musculus, Primary neuron, dose response

| Structure (SMILES) | Surface area of mitochondria, p (treated vs untreated) [1] | Dendritic Mt CA [2] [robust Z-scores] | Neurite Area [2] [robust Z-scores] | protection from peroxide (PO) induced mitochondrial fragmentation [3] | Emax ([4]; Mus musculus, Primary neuron) [%] | TMRM Primary [4] [Z-scores] | TMRM Rescreen [4] [Z-scores] | ATP [5] [Z-scores] | Emax [5, 9] [%] | Mitochondrial Morphology [7] | Neurite Area [7] | further results |
| --- | --- | --- | --- | --- | --- | --- | --- | --- | --- | --- | --- | --- |
| Cc1ccccc1C(OCCN(C)C)c1ccccc1 (stereo not drawn) [ORPHENADRINE CITRATE] | p = 0.022 | 3.21 | 0.08 | fully protected | 25.5 | 3.26 | 5.75 | 6.08 | 14.3 |  |  |  |
| COc1cc(O)c2c(=O)c(O)c(-c3ccc(O)c(O)c3)oc2c1 [RHAMNETIN] | p = 0.0564 | 4.48 | 2.04 | fully protected |  |  |  |  |  |  |  | EC50 ([2]; read-out: Elongation (Dend Mt length) EC50): 200 nM; EC50 ([2]; read-out: Health (Ax Mt Circularity) EC50): 2700 nM; EC50 ([2]; read-out: Mt Content (Dend Mt CA) EC50): 200 nM; EC50 ([2]; read-out: Sprouting (Neurite Area) EC50): 300 nM; ATP production in neurons ([5]; after 24 hr of treatment): increase; ATP production kinetics, amplitude of single exponential fit ([6]; 12 μM, starting 20 min after addition, DMSO 22498±358): 10059±166; ATP production of isolated mitochondria (direct effect) ([6]; 12.5 μM, within the 45-min measurement period, vs DMSO): decreased |
| CN(C)CCC=C1c2ccccc2COc2ccccc21 [doxepin hydrochloride] |  |  |  |  | 26.1 | 3.44 | 5.41 | 7.03 | 18.3 | elongated | n.s. | axonal mitochondrial circularity ([7]; after 48 h of treatment): robust effects; basal rate of respiration ([8]; 10 μM, 24 h): weak, non-significant, but consistent trend towards an increased basal rate of respiration; State 3 and 3u respiration with Complex I substrates ([8]; 10 μM, 24 h, cultured neurons): significant increase; OCR ([8]; oxygen consumption rate, significant change): increased |
| OC1(c2ccc(Cl)c(C(F)(F)F)c2)CCN(CCCC(c2ccc(F)cc2)c2ccc(F)cc2)CC1 [penfluridol] | p = 0.066 |  |  |  | 25.2 | 4.29 | 4.83 | 5.75 | 22.4 | elongated | increased | neuritic area ([7]; after 48 h of treatment): increase; EC50 ([4]; Mus musculus, Primary neuron, read-out: TMRM-EC50): 50 nM; EC50 ([5]; Mus musculus, Primary neuron, dose response, 15 concentrations from 6 nM to 100 uM): 30 nM |
